Results on four molecules are retold here after US10508090B2, “Sulfonamides as GPR40- and GPR120-agonists” (DOMPÉ FARMACEUTICI S.P.A., priority 2016, dated 2019).

The test system of one experiment is NCI-H716 cells. As to the kind of experiment: In vitro GLP-1 secretion in differentiated NCI-H716 cells (ELISA). The experiment is classed as cell-based, human. As to conditions: Homo sapiens, NCI-H716, 0.5 h, compound at 100 μM for 30 minutes, differentiated NCI-H716 cells; read-out: GLP-1 RELEASE NCI, fold of increase over DMSO. The protocol:
(§1) GPR120/40 Activation: In Vitro GLP-1 Secretion
(§2) 2×10^5 STC-1 cells were seeded in a 12-plate and 24 hours later were treated with selected compounds. 1×10^6 NCI-H716 cells were differentiated in matrigel-coated 12-plate and treated 48 h hours later.
(§3) The day of the experiment, wells were washed once with 1 ml of PBS and then cells were stimulated with 0.5 ml of DMEM (w/o serum, w/o phenol-red) containing 30 μM of selected compounds in STC1 and 100 μM in differentiated NCIH716 for 30 minutes. DMSO has been used as negative control, α-linolenic acid (ALA) (endogenous agonist) as positive control. After stimulations, supernatants were collected, centrifuged at 4000 rpm for 4′ at 4° C., and used for the GLP1 detection by ELISA.
For orientation: An ELISA detects its analyte on a solid surface through an enzyme-linked reagent.

In another experiment the test system is STC-1 cells. The experiment in a line: In vitro GLP-1 secretion in STC-1 cells (ELISA). The experiment is classed as cell-based, murine. As to conditions: Mus musculus, STC-1, 0.5 h, compound at 30 μM for 30 minutes, STC-1 cells; read-out: GLP-1 RELEASE STC-1, fold of increase over DMSO. The protocol:
as §1, §2, §3

The target in the next experiment is T1, human GPR120 (Homo sapiens, UniProt Q5NUL3).
T1 construct: expressed in transfected cells; host or cells: CHO-k1
T1 sequence (Q5NUL3 1-361): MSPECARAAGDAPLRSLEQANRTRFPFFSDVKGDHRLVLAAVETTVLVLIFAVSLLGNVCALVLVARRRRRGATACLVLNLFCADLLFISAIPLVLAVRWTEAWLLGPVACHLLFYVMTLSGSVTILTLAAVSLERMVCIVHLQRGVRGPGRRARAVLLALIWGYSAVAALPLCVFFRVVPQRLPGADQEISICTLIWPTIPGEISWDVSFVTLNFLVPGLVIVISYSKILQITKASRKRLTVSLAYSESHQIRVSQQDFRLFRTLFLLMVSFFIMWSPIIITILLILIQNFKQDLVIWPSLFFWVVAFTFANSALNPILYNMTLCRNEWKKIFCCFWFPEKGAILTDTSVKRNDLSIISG
As to the kind of experiment: In vitro Ca2+ mobilization, CHO-k1 cells stably expressing human GPR120. The settings on record: intracellular calcium, CHO-k1 cells expressing human GPR120; read-out: Ca2+ hGPR120 AC50. The experiment is classed as cell-based. How it is done: (§4) GPR120/40 Activation: In Vitro Ca^2+ Mobilization
(§5) The activation of GPR120/40 by all compounds was determined by measuring changes in intracellular calcium levels using a Ca^2+ sensitive fluorescent dye.
(§6) The experiments were performed using CHO-k1 cells stably expressing the human GPR120 or GPR40. Cells were seeded 10000 cells/well in 384-plates in complete medium and grown overnight at 37° C., 5% CO2. 24 h after seeding, cell culture media was removed and cells were loaded with the fluorescent Ca^2+ indicator (Fluo-8 NW dye in Tyrode's buffer). Dye-loaded cell plates were incubated for 1 h at room temperature under a yellow light sodium lamp.
(§7) Cell were treated with test compounds and controls at 10, 30 and 60 μM. The kinetic response was monitored over a period of 7 minutes (using FLIPRTETRA system). A second injection of 3× concentrated reference agonist at ˜EC50 were then administered to cells and the signal of the emitted fluorescence was measured over a period of additional 3 minutes. The agonist effect is expressed as a percentage of activation, with 100% activation being a result in which the Response Values of the test wells reach a level identical to the one of the Stimulator Controls (alpha linolenic acid reference agonist EC100). 0% activation is a result in which the Response Values of the test wells reach a level identical to the one of the Neutral Controls (assay buffer) in the AGO_KRV (Agonist Kinetic Response Value) response value.

The next experiment addresses T2, human GPR40 (Homo sapiens, UniProt O14842).
T2 construct: expressed in transfected cells; host or cells: CHO-k1
The experiment in a line: In vitro Ca2+ mobilization, CHO-k1 cells stably expressing human GPR40. The experiment is classed as cell-based. As to conditions: intracellular calcium, CHO-k1 cells expressing human GPR40; read-out: Ca2+ hGPR40 AC50. How it is done: as §4, §5, §6, §7
Background: Calcium flux is commonly read through the fluorescence of an indicator in the cells.

T2 sequence (O14842 whole entry): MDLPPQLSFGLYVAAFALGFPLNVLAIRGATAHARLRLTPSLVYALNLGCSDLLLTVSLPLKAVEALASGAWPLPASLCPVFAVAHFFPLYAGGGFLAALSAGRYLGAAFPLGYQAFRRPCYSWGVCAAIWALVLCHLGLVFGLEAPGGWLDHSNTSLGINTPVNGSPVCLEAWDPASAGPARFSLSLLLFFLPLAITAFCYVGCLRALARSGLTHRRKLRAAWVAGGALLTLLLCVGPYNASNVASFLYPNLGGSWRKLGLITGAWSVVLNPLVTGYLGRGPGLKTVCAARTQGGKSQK

In the case of `Cc1noc(C)c1NS(=O)(=O)c1cccc(CCCCCCC(=O)O)c1` [Example 19, 7-(3-(N-(3,5-dimethylisoxazol-4-yl)sulfamoyl)phenyl)heptanoic acid], in the experiment with NCI-H716 cells, the fold induction at 100 µM was found to be 2.24 ± 0.39. In addition, in the experiment on STC-1 cells, the fold induction at 30 µM amounted to 2.57 ± 0.56. Moreover, the results for the AC50 at human GPR120 and on human GPR40 were 17.6 µM and 12.1 µM, respectively.
On the same counts, the results for `Cc1cc(OCCCS(C)(=O)=O)cc(C)c1NS(=O)(=O)c1cccc(CCCCCCC(=O)O)c1` [Example 35, 7-(3-(N-(2,6-dimethyl-4-(3(methylsulfonyl)propoxy)phenyl)sulfamoyl)phenyl)heptanoic acid] are 4.2 ± 0.25, 4.3 ± 0.61, 6.1 µM and 2.3 µM.
On the same counts, the results for `CCn1ncc(NS(=O)(=O)c2cccc(CCCCCCC(=O)O)c2)n1` [Example 26, 7-(3-(N-(2-ethyl-2H-1,2,3-triazol-4-yl)sulfamoyl)phenyl)heptanoic acid] are 2.81 ± 0.72, 1.82 ± 0.41, 18.9 µM and 20.1 µM.
On the same counts, the results for `Cc1nc(C)c(NS(=O)(=O)c2cccc(CCCCCCC(=O)O)c2)s1` [Example 13, 7-(3-(N-(2,4-dimethylthiazol-5-yl)sulfamoyl)phenyl)heptanoic acid] are 1.03 ± 0.17, 1.13 ± 0.15, 15.2 µM and 23.9 µM.

A word on the AC50: it is the concentration giving half of the maximal activity seen.
